Holding throughout (assay): inhibition of tumour cell growth, NCI panel, 48 h
The subject of assay [1] is BT-549 breast.
Assay [2] relates to DU-145 prostate.
Assay [3] relates to EKVX NSCLC.
Assay [4] concerns HCC-2998 colon.
The test system of assay [5] is HL-60(TB) leukemia.
In assay [6] the test system is IGROV1 ovarian.
The subject of assay [7] is K-562 leukemia.
Assay [8] concerns MOLT-4 leukemia.
Assay [9] has as its system SK-MEL-2 melanoma.
Assay [10] concerns T-47D breast.

Each structure is given as a SMILES string.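 All cell lines were grown in 96-well plates and treated with compound for 48 hours. GI50: concentration for 50% inhibition of growth. TGI denotes the concentration required for complete inhibition of growth.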

With `O=c1cc(N=P(c2ccccc2)(c2ccccc2)c2ccccc2)n(-c2ccccc2)c(=O)n1-c1ccccc1`, the TGI in [1] is 95.6 µM; in [2], greater than 100 µM; in assay [3], 49.8 µM; in assay [4] it was 69.7 µM; in [5] it was 44.6 µM; in assay [6] it was 58.8 µM. Also, the TGI in [7] is 23.9 µM; in assay [8], 22 µM; in assay [9], 58.1 µM; in [10], 55.2 µM.
Take `COc1cc2c(cc1-c1c(C)noc1C)cc(C)c(=O)n2Cc1ccccn1`: the GI50 in [1] is 3.89 µM; in assay [2], 12.6 µM; in assay [3], 1670 nM; in assay [4], 1790 nM; in [5], 301 nM; in assay [6], 1200 nM. Moreover, the GI50 in assay [7] was 963 nM; in assay [8], 3.13 µM; in assay [9] it was 2460 nM; in [10] it was 456 nM. Besides, the TGI in assay [1] is greater than 100 µM; in assay [2], greater than 100 µM; in [3], greater than 100 µM; in assay [4], 17.3 µM; in [5] it was 3.77 µM; in [6], greater than 100 µM. Further, the TGI in assay [7], in assay [8], in assay [9] and in [10] was greater than 100 µM in each case.
For `O=C(c1cc2ccccc2cc1O)N1CCCCC1`, the TGI in [1] is 84.2 µM; in assay [2], greater than 100 µM; in assay [3] it was 78.1 µM; in assay [4], 49.8 µM; in [5], 46.9 µM; in [6] it was 50 µM. For the same molecule, the TGI in assay [7] is 48.6 µM; in assay [8] it was 42.7 µM; in [9] it was 46.5 µM; in assay [10] it was greater than 100 µM.
`O=C1c2cc3c(cc2CC1Br)CCC3` (stereo not given): the TGI in assay [1] is 4.49 µM; in assay [2] it was 29.4 µM; in assay [3] it was 28.9 µM; in assay [4], 13.4 µM; in [5] it was greater than 20.1 µM; in assay [6], 9.3 µM. Further, the TGI in assay [7] stood at 7.04 µM; in assay [8] it was 4.56 µM; in assay [9], 5.2 µM; in assay [10], 5.68 µM.
For `Nc1c(-c2cccc3ccccc23)c2ccc([N+](=O)[O-])cc2c(=O)n1-c1nc2ccccc2s1`, the TGI in assay [1] is greater than 100 µM; in assay [2], greater than 100 µM; in assay [3], 17.4 µM; in assay [4] it was greater than 100 µM; in assay [5], 5.37 µM; in assay [6], greater than 100 µM. Moreover, the TGI was greater than 100 µM in assay [7], greater than 27.5 µM in assay [8], 19.2 µM in assay [9] and greater than 100 µM in [10].
Turning to `CC(C)(C)NC(=O)/C(=C\Sc1ccccc1)c1ccc2c(c1)OCO2`, the TGI in [1] was greater than 100 µM; in assay [2], greater than 100 µM; in assay [3], greater than 100 µM; in assay [4], greater than 100 µM; in assay [5], 41.9 µM; in assay [6], greater than 100 µM. Besides, the TGI in [7] is greater than 100 µM; in [8], greater than 100 µM; in assay [9] it was 34.6 µM; in assay [10] it was greater than 100 µM.
With `Brc1cccc(Nc2nc(-c3cccs3)nc3ccc(Br)cc23)c1`, the TGI in [1] was greater than 100 µM; in assay [2] it was greater than 100 µM; in [3], 98.1 µM; in [4], 42.1 µM; in [5], greater than 100 µM; in assay [6], greater than 100 µM. Besides, the TGI was greater than 100 µM in assay [7], greater than 100 µM in assay [8], 94.5 µM in assay [9] and greater than 100 µM in assay [10].
As to `CCN(CC)CCOc1ccc(N2C(=O)c3cc(OC)c(OC)cc3C2=O)cc1`, the TGI in [1], in assay [2], in assay [3], in assay [4], in assay [5] and in assay [6] was greater than 100 µM throughout. Further, the TGI in assay [7], in [8], in assay [9] and in assay [10] was greater than 100 µM throughout.
Regarding `CC1CC[C@@]2(OC1)OC1C[C@H]3[C@@H]4CC[C@H]5CC(OC6OC(CO)C(OC7OC(CO)C(O)C(O)C7OC7OC(CO)C(O)C(O)C7O)C(O)C6O)CCC5(C)[C@H]4CCC3(C)C1[C@@H]2C` (stereo not given in full), the TGI came out at 3.62 µM in assay [1]; 1.81 µM in assay [2]; 2.21 µM in assay [3]; 2.06 µM in [4]; 11.6 µM in assay [5]; 2.15 µM in assay [6]. Also, the TGI in assay [7] worked out at 9.01 µM; in assay [8], 3.54 µM; in assay [9] it was 8.05 µM; in assay [10], 8.51 µM.
Regarding `CCCNC(=O)CCC(C)[C@H]1CCC2C3C(C[C@H](OC(C)=O)[C@@]21C)[C@@]1(C)CCC2(C[C@H]1C[C@H]3OC(C)=O)OOC1(CCC(C)CC1)OO2` (stereo not given in full), the TGI in assay [1] was determined as 60.5 µM; in [2], 21.2 µM; in [3] it was 30.6 µM; in assay [4], 79.1 µM; in assay [5], 32.4 µM; in assay [6], 4.36 µM. In addition, the TGI in [7] is greater than 100 µM; in [8] it was greater than 100 µM; in assay [9], 52.9 µM; in assay [10], 38.4 µM.
In the case of `Cc1ccccc1C(O)(c1nccn1C)c1nccn1C`, the TGI in assay [1], in assay [2], in assay [3], in assay [4], in assay [5] and in assay [6] was greater than 100 µM in each case. Further, the TGI in [7], in assay [8], in assay [9] and in assay [10] was greater than 100 µM throughout.
On to `CN(C)CCCN1C(=S)N(CCCN(C)C)c2c3cc(O)ccc3nc3c([N+](=O)[O-])ccc1c23`, for which the TGI in assay [1] is 28 µM; in assay [2], 16.5 µM; in assay [3], 16.2 µM; in assay [4], 8.02 µM; in assay [5], 22.1 µM; in assay [6] it was 7 µM. Besides, the TGI was greater than 33 µM in [7], 8.81 µM in assay [8], 15.2 µM in assay [9] and 9.48 µM in [10].
Take `CN(C)Cc1cc(C(=O)/C=C/c2ccc(O)cc2)cc(CN(C)C)c1O`: the TGI is greater than 100 µM in assay [1]; greater than 100 µM in assay [2]; greater than 100 µM in assay [3]; greater than 100 µM in [4]; 49.9 µM in assay [5]; greater than 100 µM in assay [6]. Further, the TGI in [7], in assay [8], in assay [9] and in assay [10] was greater than 100 µM throughout.
For `CN(C)c1ccc(C=C2N=C(c3ccccc3)N(c3cc(C(=O)c4ccccc4)ccc3N3C(=O)/C(=C/c4ccc(N(C)C)cc4)N=C3c3ccccc3)C2=O)cc1`, the TGI in [1] is greater than 100 µM; in [2] it was greater than 100 µM; in assay [3], greater than 100 µM; in assay [4] it was 22.7 µM; in [5] it was 37.6 µM; in [6], greater than 100 µM. For the same molecule, the TGI in assay [7] was greater than 100 µM; in assay [8], 14.9 µM; in assay [9] it was 21.4 µM; in assay [10], greater than 100 µM.
For `Oc1ccccc1/C=N/c1nc2cc3sc(/N=C/c4ccccc4O)nc3cc2s1`, the TGI is greater than 100 µM in assay [1]; greater than 100 µM in assay [2]; greater than 100 µM in [3]; greater than 100 µM in assay [4]; greater than 73.3 µM in assay [5]; greater than 100 µM in assay [6]. The TGI in [7] is greater than 100 µM; in assay [8], 81.2 µM; in [9], greater than 100 µM; in assay [10], greater than 100 µM.
For the molecule `COC(=O)[C@]12CC[C@H]3CN(C(=O)OCc4ccccc4)[C@H]([C@H]31)[C@H](c1ccco1)N2S(=O)(=O)c1ccc(C)cc1`, the TGI was 35.6 µM in [1]; greater than 100 µM in [2]; greater than 100 µM in assay [3]; 34.5 µM in [4]; 58.7 µM in assay [5]; 57.1 µM in assay [6]. The TGI was greater than 100 µM in assay [7], greater than 100 µM in assay [8], 49.3 µM in assay [9] and 93 µM in assay [10].
Turning to `CCCn1c(CN(Cc2nc3ccccc3n2CCC)Cc2nc3ccccc3n2CCC)nc2ccccc21`, the TGI in [1] is greater than 58.4 µM; in assay [2], greater than 88.5 µM; in assay [3] it was 40.4 µM; in [4], 30 µM; in [5], 4.46 µM; in assay [6], 16.7 µM. Further, the TGI in assay [7] worked out at 32.1 µM; in assay [8], 40.8 µM; in assay [9] it was 35.4 µM; in [10] it was 28.6 µM.
For the molecule `C(=N\NC1=NCCCN1)/c1ccc2ccccc2c1`, the TGI in assay [1] is 32.5 µM; in assay [2], 24.2 µM; in assay [3], 32.8 µM; in assay [4] it was 10.5 µM; in assay [5] it was 21 µM; in assay [6] it was 32.1 µM. Also, the TGI in [7] worked out at 12.6 µM; in assay [8], 5.02 µM; in assay [9], 28.2 µM; in assay [10], 33 µM.
`CC(C)/C(Cl)=N\OC(=O)Nc1ccc(C#N)cc1`: the TGI in assay [1] was 26.6 µM; in assay [2], 32.2 µM; in assay [3] it was 7.31 µM; in assay [4] it was 29.9 µM; in [5], greater than 22.7 µM; in assay [6], 32.7 µM. The TGI in assay [7] came out at 4.82 µM; in assay [8] it was 5.41 µM; in assay [9], 25.6 µM; in assay [10], 40.2 µM.
Consider `O=c1c2cc3c(cc2[nH]c2ncccc12)OCO3`, for which the TGI in assay [1], in assay [2], in assay [3], in assay [4], in assay [5] and in assay [6] was greater than 10 µM throughout. Moreover, the TGI in assay [7], in [8], in assay [9] and in assay [10] was greater than 10 µM each time.
`COc1ccc(C2(CC(C)O)SCCCS2)cc1` (stereo not given): the TGI in assay [1], in assay [2], in assay [3], in assay [4], in [5] and in assay [6] was greater than 100 µM each time. For the same molecule, the TGI in assay [7], in assay [8], in assay [9] and in [10] was greater than 100 µM in each case.
In the case of `CC(O)C1CC1(CO)CNc1cc(Cl)nc(N)n1` (stereo not given), the TGI in assay [1], in assay [2], in assay [3], in assay [4], in [5] and in assay [6] was greater than 100 µM each time. Further, the TGI in assay [7], in [8], in assay [9] and in [10] was greater than 100 µM throughout.
Consider `O=P(c1ccccc1)(c1ccccc1)N1O[C@@H](c2ccccc2)C=C[C@H]1c1ccccc1`, for which the TGI came out at 32.4 µM in assay [1]; 26.3 µM in [2]; 24.1 µM in [3]; 27.5 µM in [4]; 28.4 µM in [5]; 28.9 µM in assay [6]. Also, the TGI in assay [7] came out at 80.1 µM; in assay [8], 27.5 µM; in [9], 24.9 µM; in assay [10], 20 µM.
`O=C(NCCN1CCOCC1)c1ccc2cc(C(=O)N3CC(CCl)c4ccc([N+](=O)[O-])cc43)[nH]c2c1` (stereo not given): the TGI is 92.3 µM in assay [1]; 49.3 µM in assay [2]; 86.3 µM in assay [3]; 29.7 µM in assay [4]; 94.7 µM in assay [5]; greater than 100 µM in [6]. Moreover, the TGI is greater than 100 µM in assay [7], 39.1 µM in assay [8], 32.7 µM in [9] and greater than 100 µM in [10].
Regarding `Cc1csc(-c2cn(C)c3c2C(=O)C(N)=CC3=O)n1`, the TGI was greater than 100 µM in [1]; greater than 100 µM in assay [2]; greater than 100 µM in [3]; greater than 100 µM in assay [4]; 14.8 µM in assay [5]; 13.4 µM in assay [6]. The TGI in [7] was greater than 100 µM; in assay [8], greater than 27.9 µM; in assay [9] it was greater than 82.7 µM; in assay [10] it was greater than 100 µM.
